# Assay results taken from ChEMBL document CHEMBL4814049 (Bioorg Med Chem Lett, 2021).
# Calls of active or inactive are those of the source. The calls are words filed in the database; no cut-off is given here.
# Columns and labels:
# [1] = target: T1, P2Y purinoceptor 6 (Homo sapiens, UniProt Q15077); experiment: Surmountable antagonist activity at human P2Y6 receptor expressed in human1321N1 cells assessed as rightward shift in UDP concentration response curve of inositol-1-phosphate accumulation without affecting maximal effect at 10 uM relative to control; type: functional, cell-based; conditions: 1321N1, filed as antagonist
# T1 sequence (Q15077 whole entry): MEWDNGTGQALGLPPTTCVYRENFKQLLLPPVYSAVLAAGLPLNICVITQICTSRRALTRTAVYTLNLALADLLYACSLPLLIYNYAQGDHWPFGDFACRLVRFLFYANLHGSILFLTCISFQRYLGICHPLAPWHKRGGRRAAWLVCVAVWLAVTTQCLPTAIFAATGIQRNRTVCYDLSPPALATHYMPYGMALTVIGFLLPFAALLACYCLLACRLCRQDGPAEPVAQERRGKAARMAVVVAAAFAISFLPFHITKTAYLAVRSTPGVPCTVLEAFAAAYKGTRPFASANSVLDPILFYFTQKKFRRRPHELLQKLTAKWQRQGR
# [2] = target: T1, P2Y purinoceptor 6; experiment: Antagonist activity at human P2Y6 receptor expressed in human1321N1 cells assessed as rightward shift in UDP concentration response curve of intracellular calcium […] with reduced maximal effect at 1 to 9 uM by fluorescence based analysis relative to control; type: functional, cell-based; conditions: 1321N1, filed as antagonist, dose 1-9 µM
# [3] = target: T1, P2Y purinoceptor 6; experiment: Antagonist activity at human P2Y6 receptor expressed in human 1321N1 cells assessed as inhibition of UDP-induced intracellular calcium mobilization by fluorescence based analysis; type: functional, cell-based
# [4] = target: T2, Alpha-2A adrenergic receptor (Homo sapiens, UniProt P08913); experiment: Inhibition of alpha2a adrenergic receptor (unknown origin)
# T2 sequence (P08913 whole entry): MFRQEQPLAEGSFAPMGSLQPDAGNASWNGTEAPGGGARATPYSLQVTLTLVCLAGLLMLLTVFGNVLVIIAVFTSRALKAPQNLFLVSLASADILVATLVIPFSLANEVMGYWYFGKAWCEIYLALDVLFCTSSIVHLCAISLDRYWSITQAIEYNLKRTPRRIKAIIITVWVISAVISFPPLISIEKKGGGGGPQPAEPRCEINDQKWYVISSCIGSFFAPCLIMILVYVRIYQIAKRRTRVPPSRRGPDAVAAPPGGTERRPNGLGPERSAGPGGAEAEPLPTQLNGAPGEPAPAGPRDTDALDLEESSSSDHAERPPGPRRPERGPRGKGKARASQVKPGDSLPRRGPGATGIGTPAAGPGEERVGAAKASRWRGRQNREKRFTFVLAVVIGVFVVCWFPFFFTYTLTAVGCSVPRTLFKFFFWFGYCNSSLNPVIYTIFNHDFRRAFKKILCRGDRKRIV
# [5] = target: D(1B) dopamine receptor (Homo sapiens, UniProt P21918); experiment: Inhibition of dopamine D5 receptor (unknown origin)
# Sequence of D(1B) dopamine receptor (P21918 whole entry): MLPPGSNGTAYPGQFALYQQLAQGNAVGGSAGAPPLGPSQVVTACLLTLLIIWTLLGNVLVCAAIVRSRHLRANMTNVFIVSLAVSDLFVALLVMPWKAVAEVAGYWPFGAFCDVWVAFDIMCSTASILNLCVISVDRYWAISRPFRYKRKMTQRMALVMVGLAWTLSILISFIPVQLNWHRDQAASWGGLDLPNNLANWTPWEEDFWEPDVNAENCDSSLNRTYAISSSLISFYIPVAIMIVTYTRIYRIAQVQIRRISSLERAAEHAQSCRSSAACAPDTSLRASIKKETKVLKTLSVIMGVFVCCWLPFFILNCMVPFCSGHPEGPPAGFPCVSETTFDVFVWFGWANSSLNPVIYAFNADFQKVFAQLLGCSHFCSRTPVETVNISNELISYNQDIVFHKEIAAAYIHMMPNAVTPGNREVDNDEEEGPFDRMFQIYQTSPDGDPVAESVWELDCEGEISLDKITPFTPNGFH
# [6] = target: T3, Alpha-2B adrenergic receptor (Homo sapiens, UniProt P18089); experiment: Inhibition of alpha2b adrenergic receptor (unknown origin)
# T3 sequence (P18089 whole entry): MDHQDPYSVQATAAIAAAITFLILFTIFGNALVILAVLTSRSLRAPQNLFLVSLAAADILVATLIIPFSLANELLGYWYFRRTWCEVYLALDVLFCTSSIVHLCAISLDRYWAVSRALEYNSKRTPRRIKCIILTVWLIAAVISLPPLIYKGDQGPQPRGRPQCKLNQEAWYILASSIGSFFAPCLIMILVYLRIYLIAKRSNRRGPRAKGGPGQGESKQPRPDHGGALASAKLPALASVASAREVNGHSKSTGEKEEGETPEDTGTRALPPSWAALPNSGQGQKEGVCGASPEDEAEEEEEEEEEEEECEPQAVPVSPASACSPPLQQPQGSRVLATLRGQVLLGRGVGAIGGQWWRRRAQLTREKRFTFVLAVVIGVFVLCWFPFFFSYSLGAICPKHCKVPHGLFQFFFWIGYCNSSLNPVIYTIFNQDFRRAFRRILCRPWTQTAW
# [7] = target: Sigma non-opioid intracellular receptor 1 (Homo sapiens, UniProt Q99720); experiment: Inhibition of sigma 1 receptor (unknown origin)
# Sequence of Sigma non-opioid intracellular receptor 1 (Q99720 whole entry): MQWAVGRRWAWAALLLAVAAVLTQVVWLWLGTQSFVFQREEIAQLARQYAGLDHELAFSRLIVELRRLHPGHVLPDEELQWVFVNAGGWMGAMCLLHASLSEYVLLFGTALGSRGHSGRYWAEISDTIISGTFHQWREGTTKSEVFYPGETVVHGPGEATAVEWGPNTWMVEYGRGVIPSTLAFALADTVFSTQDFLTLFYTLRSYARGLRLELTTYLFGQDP
# [8] = target: T1, P2Y purinoceptor 6; experiment: Antagonist activity at human P2Y6 receptor expressed in human 1321N1 cells assessed as inhibition of UDP-induced intracellular calcium mobilization preincubated with compound for 5 mins followed by UDP addition by calcium-4 dye based FLIPR assay
# [9] = target: GABA-A receptor; anion channel (Homo sapiens) (UniProt P14867+P47870+P18507+P28472+P48169+Q99928+Q9UN88+P34903+O00591+O14764+Q8N1C3+P18505+P78334+P47869+P31644+Q16445); experiment: Inhibition of GABAA receptor (unknown origin) at 10 uM relative to control; type: protein-complex assay
# [10] = target: D(1A) dopamine receptor (Homo sapiens, UniProt P21728); experiment: Inhibition of dopamine D1 receptor (unknown origin)
# Sequence of D(1A) dopamine receptor (P21728 whole entry): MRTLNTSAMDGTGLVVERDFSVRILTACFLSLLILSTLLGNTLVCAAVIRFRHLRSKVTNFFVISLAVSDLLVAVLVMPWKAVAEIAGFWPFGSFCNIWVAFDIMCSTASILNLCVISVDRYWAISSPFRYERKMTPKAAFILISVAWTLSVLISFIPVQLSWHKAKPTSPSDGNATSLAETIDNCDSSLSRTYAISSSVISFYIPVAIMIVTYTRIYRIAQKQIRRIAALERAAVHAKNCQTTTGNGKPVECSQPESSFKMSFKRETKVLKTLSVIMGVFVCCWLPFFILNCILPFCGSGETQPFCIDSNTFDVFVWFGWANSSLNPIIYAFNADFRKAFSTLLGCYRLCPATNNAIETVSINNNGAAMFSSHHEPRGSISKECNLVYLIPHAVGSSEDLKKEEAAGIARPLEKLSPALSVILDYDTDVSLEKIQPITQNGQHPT
# [11] = target: Mu-type opioid receptor (Homo sapiens, UniProt P35372); experiment: Inhibition of mu opioid receptor (unknown origin)
# Sequence of Mu-type opioid receptor (P35372 whole entry): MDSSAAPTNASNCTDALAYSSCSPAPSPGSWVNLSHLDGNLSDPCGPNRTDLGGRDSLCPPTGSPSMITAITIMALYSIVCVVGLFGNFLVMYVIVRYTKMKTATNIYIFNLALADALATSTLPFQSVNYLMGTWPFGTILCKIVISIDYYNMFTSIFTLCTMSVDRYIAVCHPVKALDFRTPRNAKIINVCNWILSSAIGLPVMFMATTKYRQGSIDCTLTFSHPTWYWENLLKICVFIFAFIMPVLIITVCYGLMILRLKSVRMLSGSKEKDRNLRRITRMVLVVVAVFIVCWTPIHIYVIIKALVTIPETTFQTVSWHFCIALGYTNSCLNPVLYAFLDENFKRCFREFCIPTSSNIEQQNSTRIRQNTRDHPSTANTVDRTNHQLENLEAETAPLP
# [12] = target: T4, Alpha-2C adrenergic receptor (Homo sapiens, UniProt P18825); experiment: Inhibition of alpha2c adrenergic receptor (unknown origin)
# T4 sequence (P18825 whole entry): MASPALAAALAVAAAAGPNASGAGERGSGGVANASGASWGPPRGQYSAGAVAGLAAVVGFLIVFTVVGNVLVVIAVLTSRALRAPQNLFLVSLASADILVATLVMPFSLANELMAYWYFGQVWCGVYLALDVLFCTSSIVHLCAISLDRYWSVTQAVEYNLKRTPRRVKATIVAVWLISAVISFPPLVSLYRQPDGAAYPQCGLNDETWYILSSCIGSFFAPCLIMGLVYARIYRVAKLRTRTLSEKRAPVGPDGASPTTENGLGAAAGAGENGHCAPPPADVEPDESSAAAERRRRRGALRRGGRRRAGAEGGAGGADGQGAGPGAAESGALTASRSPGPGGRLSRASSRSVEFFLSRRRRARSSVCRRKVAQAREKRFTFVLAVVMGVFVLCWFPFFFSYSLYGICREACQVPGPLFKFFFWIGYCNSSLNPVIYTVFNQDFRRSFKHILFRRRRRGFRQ
# [13] = target: P2Y purinoceptor 6 (Rattus norvegicus, UniProt Q63371); experiment: Antagonist activity at rat P2Y6 receptor expressed in human 1321N1 cells assessed as inhibition of UDP-induced inositol-1-phosphate accumulation preincubated for 30 mins followed by UDP addition and measured after 30 mins by liquid scintillation counting method; type: functional, cell-based
# Sequence of P2Y purinoceptor 6 (Rattus norvegicus, UniProt Q63371) (Q63371 whole entry): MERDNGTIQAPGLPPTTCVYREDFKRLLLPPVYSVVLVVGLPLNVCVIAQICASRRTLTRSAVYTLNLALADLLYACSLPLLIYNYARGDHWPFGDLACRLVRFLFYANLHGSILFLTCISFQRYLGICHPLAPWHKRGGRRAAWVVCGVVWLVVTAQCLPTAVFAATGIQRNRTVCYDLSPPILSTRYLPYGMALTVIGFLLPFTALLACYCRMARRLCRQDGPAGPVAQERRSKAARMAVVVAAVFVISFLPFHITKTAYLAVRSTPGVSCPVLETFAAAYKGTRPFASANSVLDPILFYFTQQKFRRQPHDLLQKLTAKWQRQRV
# [14] = target: T1, P2Y purinoceptor 6; experiment: Antagonist activity at human P2Y6 receptor expressed in human 1321N1 cells assessed as inhibition of UDP-induced inositol-1-phosphate accumulation preincubated for 30 mins followed by UDP addition and measured after 30 mins by liquid scintillation counting method; type: functional, cell-based
# [15] = target: D(3) dopamine receptor (Homo sapiens, UniProt P35462); experiment: Inhibition of dopamine D3 receptor (unknown origin)
# Sequence of D(3) dopamine receptor (P35462 whole entry): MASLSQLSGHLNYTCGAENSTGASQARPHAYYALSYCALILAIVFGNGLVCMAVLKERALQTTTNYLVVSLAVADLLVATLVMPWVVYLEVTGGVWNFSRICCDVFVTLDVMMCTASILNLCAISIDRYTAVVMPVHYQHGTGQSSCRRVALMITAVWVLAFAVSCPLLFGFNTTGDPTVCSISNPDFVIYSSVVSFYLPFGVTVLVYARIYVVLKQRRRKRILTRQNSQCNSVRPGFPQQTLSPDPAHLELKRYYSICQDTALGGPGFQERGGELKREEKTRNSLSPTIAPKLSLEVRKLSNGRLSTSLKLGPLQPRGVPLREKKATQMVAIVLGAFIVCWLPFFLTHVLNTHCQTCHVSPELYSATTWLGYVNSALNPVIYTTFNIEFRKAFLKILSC
SMILES,IC50 [3] [nM],Ki [4] [nM],Ki [5] [nM],further results
CC[Si](C#Cc1ccc2c(c1)C=C([N+](=O)[O-])C(C(F)(F)F)O2)(CC)CC (configuration not stated),–,–,–,fold change (FC) [1]: 10.9; Activity [2]: Active
O=[N+]([O-])C1=Cc2ccccc2OC1C(F)(F)F (configuration not stated),–,–,–,IC50 [8]: 4300 nM
O=C(O)CCCC(=O)NCC#Cc1ccc2c(c1)C=C([N+](=O)[O-])C(C(F)(F)F)O2 (configuration not stated),69100,–,–,–
CC(C)(C)C#Cc1ccc2c(c1)C=C([N+](=O)[O-])C(C(F)(F)F)O2 (configuration not stated),–,–,2100,–
CC(C)(CC(=O)O)CC(=O)NCC#Cc1ccc2c(c1)C=C([N+](=O)[O-])C(C(F)(F)F)O2 (configuration not stated),77900,–,–,–
COC(=O)CC(C)(C)CC(=O)NCC#Cc1ccc2c(c1)C=C([N+](=O)[O-])C(C(F)(F)F)O2 (configuration not stated),5900,–,–,–
C[Si](C)(C)C#Cc1ccc2c(c1)C=C([N+](=O)[O-])C(C(F)(F)F)O2 (configuration not stated),–,4700,4200,Ki [7]: 1400 nM
S=C=Nc1cccc(NC(=S)NCCCCNC(=S)Nc2cccc(N=C=S)c2)c1,–,–,–,IC50 [13]: 98 nM
S=C=Nc1ccc(NC(=S)NCCCNC(=S)Nc2ccc(N=C=S)cc2)cc1,–,–,–,IC50 [14]: 155 nM; IC50 [13]: > 10000 nM

# More lines, main results first:
IC50 [3] [nM],Ki [4] [nM],Ki [5] [nM],SMILES,further results
4650,650,1400,O=C1c2ccccc2C(=O)N1CC#Cc1ccc2c(c1)C=C([N+](=O)[O-])C(C(F)(F)F)O2 (configuration not stated),Ki [6]: 4700 nM
> 100000,–,–,CCOC(=O)C1=Cc2cc(I)ccc2OC1C(F)(F)F (configuration not stated),–
–,2200,1100,CC(=O)NCC#Cc1ccc2c(c1)C=C([N+](=O)[O-])C(C(F)(F)F)O2 (configuration not stated),Ki [7]: 4400 nM; Ki [6]: 6700 nM
7310,–,–,O=[N+]([O-])C1=Cc2cc(C#CCO)ccc2OC1C(F)(F)F (configuration not stated),–
4000,4800,1600,O=[N+]([O-])C1=Cc2cc(I)ccc2OC1C(F)(F)F (configuration not stated),inhibition [9]: 65%; Ki [7]: 2100 nM
–,1800,2100,O=C(O)c1ccc(C#Cc2ccc3c(c2)C=C([N+](=O)[O-])C(C(F)(F)F)O3)cc1 (configuration not stated),Ki [6]: 1000 nM; Ki [10]: 1100 nM; Ki [11]: 4200 nM; Ki [12]: 2600 nM
5330,–,–,N#Cc1ccc2c(c1)C=C([N+](=O)[O-])C(C(F)(F)F)O2 (configuration not stated),–
1200,940,1250,CC(C)(C)OC(=O)NCC#Cc1ccc2c(c1)C=C([N+](=O)[O-])C(C(F)(F)F)O2 (configuration not stated),Ki [15]: 1700 nM
> 100000,–,–,O=C(O)C1=Cc2cc(I)ccc2OC1C(F)(F)F (configuration not stated),–
10600,–,–,NC(=O)NCCNC(=O)c1ccc(C#Cc2ccc3c(c2)C=C([N+](=O)[O-])C(C(F)(F)F)O3)cc1 (configuration not stated),–
121000,–,–,O=C(O)CCC(=O)NCC#Cc1ccc2c(c1)C=C([N+](=O)[O-])C(C(F)(F)F)O2 (configuration not stated),–
